This test has as its target Cannabinoid receptor 2 (Homo sapiens, UniProt P34972).

Our source for the Ki values is BindingDB's records for doi:10.1021/jm701487t (F. Hoffmann-La Roche, 2008).

Cannabinoid receptor 2, sequence (P34972 whole entry): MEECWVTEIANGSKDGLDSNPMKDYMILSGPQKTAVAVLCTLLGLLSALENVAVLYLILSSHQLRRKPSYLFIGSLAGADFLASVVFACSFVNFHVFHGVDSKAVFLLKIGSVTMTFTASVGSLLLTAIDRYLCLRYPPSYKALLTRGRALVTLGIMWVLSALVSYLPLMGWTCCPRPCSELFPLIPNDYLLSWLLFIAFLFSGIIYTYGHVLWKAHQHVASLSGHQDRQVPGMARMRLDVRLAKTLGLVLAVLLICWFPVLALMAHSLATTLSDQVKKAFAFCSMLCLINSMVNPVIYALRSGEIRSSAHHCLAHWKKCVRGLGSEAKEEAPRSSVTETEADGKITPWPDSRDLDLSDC

As a reminder, the Ki is a dissociation constant, usually derived from enzyme kinetics or from competition with a known ligand. Read a high Ki as a looser hold on the target. Take `O=C(c1cc2c(cc1F)OC(c1ccc(F)cc1)(c1ccc(Cl)cc1Cl)O2)N1CCOCC1` (stereo unspecified) [CAS_24828562]: affinity was put at a Ki of 3 nM.
